Where “and” joins values, the source holds several entries; their conditions need not be identical. Identical values can stand only once.
Key:
[1] = target: T1, cloned rat steroid 5α-reductase (Rattus norvegicus, UniProt P24008); assay: substrate specificity / inhibition of cloned rat liver steroid 5α-reductase expressed in Xenopus oocytes; conditions: for substrate for the cloned enzyme: 5 μM 14C-labeled steroid
T1 sequence (P24008 5-259): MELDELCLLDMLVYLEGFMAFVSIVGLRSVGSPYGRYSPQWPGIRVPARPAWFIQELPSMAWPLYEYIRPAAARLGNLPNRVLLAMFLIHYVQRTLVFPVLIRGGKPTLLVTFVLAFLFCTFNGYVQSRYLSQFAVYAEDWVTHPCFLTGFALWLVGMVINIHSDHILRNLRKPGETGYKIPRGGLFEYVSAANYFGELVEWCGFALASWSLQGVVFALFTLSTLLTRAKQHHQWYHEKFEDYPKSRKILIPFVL
Method: The various steroids and metabolites are identified on the left and right of the autoradiograms: P, progesterone ; 5αP, 5α-dihydroprogesterone; others are as indicated in the legend to FIG. 2. The amount of 5α-reduced metabolites for each substrate is indicated at the bottom of the figure and was determined by liquid scintillation counting after cutting out appropriate zones from the chromatograms.
Steroid 5α-Reductase Enzyme Assay. Stage 5 and 6 oocytes were surgically removed from female Xenopus laevis (NASCO, Fort Atkinson , Wis.) and collagenase-treated as described by Julius et al., (1988). Oocytes were injected with 50-100 nl of RNA (1 μg/μl) as described by Peacock et al. (Peacock et al., 1988). After injection the oocytes were incubated at 19° C. for 24 hours in modified Barth's saline solution (Peacock et al., 1988) containing 1 mg/ml bovine serum albumin (BSA) to allow expression of the injected RNA. Five to ten viable oocytes were then transferred to 1 ml of modified Barth's saline solution containing 5 μM ^14 C-labeled steroid (50 mCi/mmol, Du Pont-New England Nuclear), and incubated at 37° C. for 2-24 h. This temperature-jump protocol is based on the observation that expression of mRNA in Xenopus is maximal a 19° C., whereas rat steroid 5α-reductase expressed in Xenopus has a temperature optima of 37° C. After the 37° C. incubation, the oocytes were homogenized in the incubation medium and steroid was extracted with 10 ml of dichloromethane. The solvent was evaporated under air and the residue was dissolved in 0.1 ml of chloroform/methanol (2:1, v/v) and subjected to thin-layer chromatography using Siica Gel 60 thin-layer chromatography plates (E. merck, 5748-7, Darmstadt, West Germany). The chromatoplates were autoradiographed for 18 hours at -70° C. and the radioactive zones were cut out and subjected to liquid scintillation counting in Complete Counting Cocktail (Research Products International). The identities of the products were determined by comparison to the Rf values of known standards.
(§12) The oocytes were then incubated with different radiolabeled steroids for an additional 24 hours and the products formed were analyzed by thin-layer chromatography (TLC).

[2] = target: T2, rat steroid 5α-reductase (Rattus norvegicus, UniProt P24008); assay: steroid 5α-reductase activity/inhibition in vitro, homogenates of COS cells expressing rat cDNA (Table III); conditions: rat enzyme
T2 sequence (P24008 5-259): T1 sequence (P24008 5-259)
Text: (§1) Expression Vector Construction. A rat steroid 5α-reductase cDNA corresponding to nucleotides 1-1962 (see Example 1) was ligated into the pCMV4 expression vector (Andersson et al., 1989b). A human cDNA corresponding to nucleotides 1 to 842 of FIG. 7 was initially ligated into pCMV4. […] After amplification, the product was ligated into pCMV4.
(§2) Expression of Steroid 5α-Reductase 1 cDNAs in COS Cells. Simian COS-M6 cells were transfected as described by Andersson et al. (1989b). The assay of steroid 5α-reductase activity in intact cells was carried out as described in Example 1 except that [^14 C]-labeled steroid dissolved in ethanol were added to the transfected cell medium and subsequent organic extractions were carried out with dichloromethane. TLC and liquid scintillation counting were performed as described in Example 1.
(§3) To assay steroid 5α-reductase activity in vitro, cells were harvested 48 hours after transfection, washed once with phosphate buffered saline and either frozen in liquid N2 or homogenized directly with a Polytron in 10 mM potassium phosphate (pH 7.4), 150 mM KCl and 1 mM EDTA, at a protein concentration of 2 mg/ml. A typical assay contained 10 to 50 μg of cell homogenate protein in 0.5 ml of 0.1M potassium phosphate buffer (pH 6.6, rat enzyme; pH 7.0, human enzyme). Steroids were added in 5 μl ethanol, and the reaction was initiated by the addition of NADPH to a final concentration of 2-5 mM. Incubations were carried out for 10 min at 37° C. and terminated by the addition of 5 ml dichloromethane. Organic execrations and thin-layer chromatography analysis were as described above.
(§4) The apparent Km and Vmax values in this system were determined in vitro with five different steroid substrates (Table III).
(§5) The apparent Ki values were then determined for 4-aza-steroid (4-MA and MK-906) inhibition of 5α-reductases expressed in COS cells. […] The data obtained were analyzed using Dixon plots to determine the type of inhibition and the apparent Ki value (Dixon et al., 1979).
(§6) COS call transfaction, cell homogonate preparation, and enzyme assay were
(§7) carried out as described in Materials and Methods. Each Km value
(§8) represents the average of at least two experiments carried out on
(§9) different days using cell lysates prepared from different transfections.

[3] = target: T3, human steroid 5α-reductase 1 (Homo sapiens, UniProt P18405); assay: steroid 5α-reductase activity/inhibition in vitro, homogenates of COS cells expressing human steroid 5α-reductase 1 cDNA (Table III); conditions: human enzyme
T3 sequence (P18405 1-259): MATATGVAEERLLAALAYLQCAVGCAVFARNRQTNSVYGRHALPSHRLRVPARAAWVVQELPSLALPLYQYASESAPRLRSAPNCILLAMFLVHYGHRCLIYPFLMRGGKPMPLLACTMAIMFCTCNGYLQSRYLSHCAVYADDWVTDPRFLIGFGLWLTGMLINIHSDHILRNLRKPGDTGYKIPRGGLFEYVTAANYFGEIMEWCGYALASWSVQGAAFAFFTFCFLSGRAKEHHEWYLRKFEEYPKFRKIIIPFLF
Text: as §1, §2, §3, §4, §5, §6, §7, §8, §9

[4] = target: T3, human steroid 5α-reductase 1; assay: steroid 5α-reductase assay in intact transfected COS cells, human type 1 cDNA; assay type: cell-based; set-up: Human 5α-reductase 1 is 259 residues long; expressed in transfected cells; host or cells: simian COS-M6 cells, pCMV4 vector; conditions: human steroid 5α-reductase 1 expressed in COS cells; 37° C., 2 hr
Text: as §1, §2
(§10) COS cells were transiently transfected with expression vectors harboring the rat or human steroid 5α-reductase 1 cDNAs, or with the pCMV4 vector alone.
(§11) IC50 values for MK-906 and 4-MA inhibition of 5α-reductases expressed in COS cells were also determined. […] See Example 6 and FIG. 15, for further analysis of 4-aza-steroid inhibition.

[5] = system: steroid 5α-reductase; conditions: Liang et al., 1985; cited from earlier work
[6] = system: endogenous Xenopus enzyme (presumably a 17β-hydroxysteroid dehydrogenase); assay: conversion of steroids by endogenous Xenopus oocyte enzymes (control for nonspecific inhibition); assay type: cell-based, Xenopus laevis; conditions: 5 μM substrate, 5 μM inhibitor
Method: Steroid 5α-Reductase Enzyme Assay. Stage 5 and 6 oocytes were surgically removed from female Xenopus laevis (NASCO, Fort Atkinson , Wis.) and collagenase-treated as described by Julius et al., (1988). Oocytes were injected with 50-100 nl of RNA (1 μg/μl) as described by Peacock et al. (Peacock et al., 1988). After injection the oocytes were incubated at 19° C. for 24 hours in modified Barth's saline solution (Peacock et al., 1988) containing 1 mg/ml bovine serum albumin (BSA) to allow expression of the injected RNA. Five to ten viable oocytes were then transferred to 1 ml of modified Barth's saline solution containing 5 μM ^14 C-labeled steroid (50 mCi/mmol, Du Pont-New England Nuclear), and incubated at 37° C. for 2-24 h. […] After the 37° C. incubation, the oocytes were homogenized in the incubation medium and steroid was extracted with 10 ml of dichloromethane. The solvent was evaporated under air and the residue was dissolved in 0.1 ml of chloroform/methanol (2:1, v/v) and subjected to thin-layer chromatography using Siica Gel 60 thin-layer chromatography plates (E. merck, 5748-7, Darmstadt, West Germany). […] The identities of the products were determined by comparison to the Rf values of known standards.
as §12

[7] = target: T2, rat steroid 5α-reductase; assay: steroid 5α-reductase assay in intact transfected COS cells, rat cDNA; assay type: cell-based; set-up: the open reading frame would encode a hydrophobic protein of 255 amino acids; expressed in transfected cells; host or cells: simian COS-M6 cells, pCMV4 vector; conditions: rat enzyme expressed in COS cells; 37° C., 2 hr
Text: as §1, §2, §10, §11

[8] = substrate: CC(=O)[C@H]1CC[C@H]2[C@@H]3CCC4=CC(=O)CC[C@]4(C)[C@H]3CC[C@]12C; assay: cells, lysate or membranes named; conditions: 0.6 to 20 μM substrate, Lineweaver-Burk, 37.0 °C
Method: (§13) To assay steroid 5α-reductase activity in vitro, cells were harvested 48 hours after transfection, washed once with phosphate buffered saline and either frozen in liquid N2 or homogenized directly with a Polytron in 10 mM potassium phosphate (pH 7.4), 150 mM KCl and 1 mM EDTA, at a protein concentration of 2 mg/ml. A typical assay contained 10 to 50 μg of cell homogenate protein in 0.5 ml of 0.1M potassium phosphate buffer (pH 6.6, rat enzyme; pH 7.0, human enzyme). Steroids were added in 5 μl ethanol, and the reaction was initiated by the addition of NADPH to a final concentration of 2-5 mM. Incubations were carried out for 10 min at 37° C. and terminated by the addition of 5 ml dichloromethane. Organic execrations and thin-layer chromatography analysis were as described above. The formation of 5α-reduced steroid products was linear with respect to protein over a 10 to 50 μg range and with respect to incubation time over a 1 to 30 minute period.

[9] = substrate: C[C@]12CCC(=O)C=C1CC[C@@H]1[C@@H]2CC[C@]2(C)C(=O)CC[C@@H]12; assay: cells, lysate or membranes named; conditions: 0.6 to 20 μM substrate, Lineweaver-Burk, 37.0 °C
Method: as §13

[10] = substrate: C[C@]12CC[C@H]3[C@@H](CCC4=CC(=O)CC[C@@]43C)[C@@H]1CC[C@@H]2O; assay: cells, lysate or membranes named; conditions: 0.6 to 20 μM substrate, Lineweaver-Burk, 37.0 °C
[11] = read-out: apparent Ki, two [14C]testosterone concentrations, Dixon plots
[12] = other: human enzyme in COS cell homogenate
[13] = other: rat enzyme in COS cell homogenate

Molecule: CC(=O)[C@H]1CC[C@H]2[C@@H]3CCC4=CC(=O)CC[C@]4(C)[C@H]3CC[C@]12C [Progesterone, progesterone]
- substrate for the cloned enzyme [1]: substrates for the cloned enzyme

Molecule: C[C@]12C[C@H](O)[C@H]3[C@@H](CCC4=CC(=O)CC[C@@]43C)[C@@H]1CC[C@@H]2C(=O)CO [Corticosterone, corticosterone]
- activity towards 11β-substituted steroids [2]: very low activities
- activity towards 11β-substituted steroids [3]: very low activities

Molecule: C[C@]12CC[C@H]3[C@@H](CCC4=CC(=O)CC[C@@]43C)[C@@H]1CC[C@@H]2O [Testosterone, testosterone]
- reduction of the testosterone substrate ([1]; intact rat steroid 5α-reductase RNA in oocytes (FIG. 6A)): 67%

Molecule: C[C@]12CCC(=O)C=C1CC[C@@H]1[C@@H]2CC[C@]2(C)C(=O)CC[C@@H]12 [Androstenedione, androstenedione]
- substrate for the cloned enzyme [1]: substrates for the cloned enzyme

Molecule: CCN(CC)C(=O)[C@H]1CC[C@H]2[C@@H]3CC[C@H]4N(C)C(=O)CC[C@]4(C)[C@H]3CC[C@]12C [4-MA, 17α-N,N-diethylcarbamoyl-4-methyl-4-aza-5α-androtane-3-one]
- effect on reduction of androstenedione ([1]; 5 μM substrate, 5 μM inhibitor): efficiently blocked
- effect on reduction of progesterone ([1]; 5 μM substrate, 5 μM inhibitor): efficiently blocked
- effect on formation of 5α-reduced products from testosterone ([1]; equimolar testosterone and inhibitor (5 μM each)): substantial decrease
- apparent Ki (in words) [2]: low nanomolar range
- type of inhibition ([2]; Dixon plots): competitive
- Ki [2, 11]: 5 nM and 7 nM
- IC50 inhibition, relative potency of 4-MA versus MK-906 [4]: approximately ten-fold more potent than MK-906
- apparent Ki (in words) [3]: low nanomolar range
- type of inhibition ([3]; Dixon plots): competitive
- Ki [3, 11]: 7 nM and 8 nM
- type of inhibition [5]: competitive inhibitors
- effect on conversion of dihydrotestosterone into other 5α-reduced metabolites by endogenous Xenopus enzymes [6]: no effect
- effect on conversion of testosterone into androstenedione by endogenous Xenopus enzyme [6]: not inhibited
- IC50 inhibition, relative potency of MK-906 and 4-MA [7]: equipotent

Molecule: C[C@]12CCC(=O)C=C1CC[C@@H]1[C@@H]2[C@@H](O)C[C@@]2(C)[C@H]1CC[C@]2(O)C(=O)CO [Cortisol, cortisol]
- activity towards 11β-substituted steroids [2]: very low activities
- activity towards 11β-substituted steroids [3]: very low activities

B1: human steroid 5α-reductase 1 (Homo sapiens) (protein)
chain: T3 sequence (P18405 1-259)
- Km [8, 12]: 0.8 µM
- Km [9, 12]: 1.7 µM
- Km [10, 12]: 3.6 µM

B2: rat steroid 5α-reductase (Rattus norvegicus) (protein)
chain: T1 sequence (P24008 5-259)
- Km [8, 13]: 0.5 µM
- Km [9, 13]: 2.8 µM
- Km [10, 13]: 2.5 µM

— patent US5679521A, “Steroid 5A-reductases” (priority 1995, dated 1997)
